Results taken from patent US9301923B2, “Lipids, lipid compositions, and methods of using them” (NOVARTIS AG, priority 2009, dated 2016).
Where two headings read alike, the source gives them in different places.

Tests used:
[1] = Particle size and PDI by dynamic light scattering (Malvern Zetasizer); format: physicochemical
How it was run: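 Nanoparticles diluted in PBS to a count rate of about 200-400 kcts and measured by dynamic light scattering; size given as intensity-weighted average diameter, with polydispersity index from the same measurement.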

[2] = test system: Factor VII; experiment: Factor VII activity assay, in vivo liver delivery of FVII siRNA LNP; set-up: species or system mouse; conditions: for FVII inhib %: ~48 h; for in vivo Factor VII inhibition: formulation containing the cationic lipid, RNAi construct specific to Factor VII, liver
How it was run: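 Female CD-1 mice (~25 g) given a single i.v. tail-vein dose of FVII siRNA in LNPs (cationic, stealth, neutral lipids), dosed as mg siRNA/kg. Plasma collected ~48 h post-injection; FVII activity read against a standard curve from pooled vehicle-control plasma.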

[3] = test system: PLK-1 mRNA in Hep3B tumors; experiment: Hep3B tumor study, PLK-1 mRNA KD in tumor tissue; format: in vivo, human; conditions: Hep3B tumor, mouse, i.v., LNP composition as in the source
Excerpt: Formulated siRNAs are made up of double stranded siRNA sequences specific to a target mRNA sequence, and are in the form of lipid nucleotid particles (LNPs) containing cationic lipids, stealth lipids and neutral lipids, as provided in the Examples below. The siRNA construct for use in targeting the liver is specific to Factor VII. The siRNA construct for use in targeting tumors is specific to PLK1-424, which is published by Judge et al., See, J Clin Invest. 2009 March; 119(3):661-73; doi: 10.1172/JCI37515). • 1. FVII siRNA duplex sequence
Hep3B tumors are established in female nude mice by sc injection of 7×10^6 cells in 100 ul PBS into the left flank. Mice are randomized into treatment groups 10-14 days after seeding as tumors reached an average size of 100 mm^3. siRNA formulated LNP formulations are administered at various dose levels intravenously via the lateral tail vein calculated on a mg siRNAs/kg basis according to individual animal weights (10 ml/kg injection volume). Mice are euthanized by CO2 inhalation at various time points and the tumors are harvested for mRNA quantitation. Lipids with a wide range of pKa (5.3-6.6) are used in the LNP formulations. Tumors are measured in 2 dimensions (width×length) to assess tumor growth using digital calipers. Tumor volume is calculated using the equation [a×b×b/2], where a equals the largest diameter and b equals the smallest diameter.
About 30-50 mg tumor tissue is homogenized in tissue lysis buffer in a Qiagen homogenizer followed by centrifugation to clarify lysates. Total RNA is isolated using RNeasy isolation kit (catalog number 74106) according to the manufacture's protocol. PLK-1 mRNA is analyzed by quantitative PCR and normalized to human GAPDH. Applied Biosystems human PLK-1 gene expression assay Hs00983229_m1 and human GAPDH endogenous control cat number 4326317E are used for mRNA detection.
The pKa in all tables refers to the pKa of the cationic lipid. Where multiple doses are indicated (e.g., 3×5), the first number indicates the number of doses given and the second number indicates the amount per dose in mg siRNA (biologically active agent) per kg mouse. In general the multiple doses are administered at 24 hour intervals, and tissues for mRNA quantitation are harvested 24 hours after the last dose.

[4] = pKa of the lipid by TNS fluorescence; format: physicochemical
How it was run: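 Lipid dissolved in ethanol (2 mM stock) and measured with TNS across eight buffers of differing pH, in water at standard temperature and pressure. Normalized fluorescence intensity plotted against pH and points joined by a smooth line to derive pKa, precise to about 0.2 units.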

[5] = LNP formulation with PLK1 siRNA, helper, neutral and stealth lipid, molar ratio and N/P as in the table
[6] = lipid/no neutral lipid/CHOL/AVANTI 880150P 50/0/46/4, N/P 3.43
[7] = dose 3 mg/kg siRNA i.v., lipid/no neutral lipid/CHOL/AVANTI 880150P 50/0/46/4, N/P 3.43
[8] = lipid/no neutral lipid/CHOL/GM-020 NOF 60/0/36/4, N/P 3
[9] = dose 1 mg/kg siRNA i.v., lipid/no neutral lipid/CHOL/GM-020 NOF 60/0/36/4, N/P 3
[10] = lipid/DSPC/CHOL/AVANTI 880150P 50/28/18/4, N/P 3.43
[11] = dose 3 mg/kg siRNA i.v., lipid/DSPC/CHOL/AVANTI 880150P 50/28/18/4, N/P 3.43

| Structure (SMILES) | Final size (nm) [1, 5] [nm] | Final size (nm) [1, 8] [nm] | PDI [1, 8] | FVII inhib % [2, 9] [%] | pKa ([4]; pKa) | PLK1 inhibition % ([3]; 1 × 1 mg siRNA/kg) [%] | also measured |
| --- | --- | --- | --- | --- | --- | --- | --- |
| CCCCC/C=C\C/C=C\CCCCCCCCOCC(CN1CCC(C)(C)C1)OCCOCCO[C@H]1CC[C@@]2(C)C(=CC[C@H]3[C@@H]4CC[C@H]([C@H](C)CCCC(C)C)[C@@]4(C)CC[C@@H]32)C1 (some centres unmarked) [E0026] | 105.8 | – | – | – | – | – | Final size (nm) [1, 6]: 87 nm; PDI [1, 6]: 0.23; FVII inhib % [2, 7]: 95.1%; PLK1 inhibition % ([3]; 1 × 5 mg siRNA/kg): 75% |
| CCCCC/C=C\C/C=C\CCCCCCCCOCC(CN1CCCC1C)OCCOCCOCCO[C@H]1CC[C@@]2(C)C(=CC[C@H]3[C@@H]4CC[C@H]([C@H](C)CCCC(C)C)[C@@]4(C)CC[C@@H]32)C1 (some centres unmarked) [E0082] | – | 105.1 | 0.303 | 49.7 | 6.81 | – | – |
| CCCCC/C=C\C/C=C\CCCCCCCCOCC(CN1CCCC1C)OCCOCCO[C@H]1CC[C@@]2(C)C(=CC[C@H]3[C@@H]4CC[C@H]([C@H](C)CCCC(C)C)[C@@]4(C)CC[C@@H]32)C1 (some centres unmarked) [E0083] | – | 113.4 | 0.199 | 55.6 | 6.79 | – | – |
| CCCCC/C=C\C/C=C\CCCCCCCCOCC(CN1CCCC1C)OCCOCCOCCOCCO[C@H]1CC[C@@]2(C)C(=CC[C@H]3[C@@H]4CC[C@H]([C@H](C)CCCC(C)C)[C@@]4(C)CC[C@@H]32)C1 (some centres unmarked) [E0084] | – | 112.1 | 0.1 | 60.7 | 7.27 | – | – |
| CCCCC/C=C\C/C=C\CCCCCCCCOCC(CN1CCC(OC)C1)OCCO[C@H]1CC[C@@]2(C)C(=CC[C@H]3[C@@H]4CC[C@H]([C@H](C)CCCC(C)C)[C@@]4(C)CC[C@@H]32)C1 (some centres unmarked) [E0087] | – | 119.2 | 0.148 | 69 | 6.38 | – | – |
| CCCCC/C=C\C/C=C\CCCCCCCCOCC(CN1CCOCC1)OCCCOCCCO[C@H]1CC[C@@]2(C)C(=CC[C@H]3[C@@H]4CC[C@H]([C@H](C)CCCC(C)C)[C@@]4(C)CC[C@@H]32)C1 (some centres unmarked) [E0093] | 82.42 | – | – | – | 4.85 | – | PLK1 inhibition % ([3]; 1 × 10 mg siRNA/kg): 2% |
| CCCCCCCC/C=C\CCCCCCCCOCC(CN1CCCC1C)OCCCOCCCO[C@H]1CC[C@@]2(C)C(=CC[C@H]3[C@@H]4CC[C@H]([C@H](C)CCCC(C)C)[C@@]4(C)CC[C@@H]32)C1 (some centres unmarked) [E0094] | – | 115.5 | 0.076 | 36.3 | 5.91 | – | – |
| CCCCC/C=C\C/C=C\CCCCCCCCOCOCC(CN1CCCCC1)OCCOCCO[C@H]1CC[C@@]2(C)C(=CC[C@H]3[C@@H]4CC[C@H]([C@H](C)CCCC(C)C)[C@@]4(C)CC[C@@H]32)C1 (some centres unmarked) [E0115] | – | 162.5 | 0.098 | 68.8 | 6.41 | – | – |
| CCCCCCCC/C=C\CCCCCCCCOCC(CN1CC[C@@H]2CCCC[C@H]2C1)OCCOCCO[C@H]1CC[C@@]2(C)C(=CC[C@H]3[C@@H]4CC[C@H]([C@H](C)CCCC(C)C)[C@@]4(C)CC[C@@H]32)C1 (some centres unmarked) [E0120] | 87 | – | – | – | 5.48 | 28 | – |
| CCCCCCCC/C=C\CCCCCCCCOCC(CN1CCOCC1)OCCOC(=O)CO[C@H]1CC[C@@]2(C)C(=CCC3[C@@H]4CC[C@H]([C@H](C)CCCC(C)C)[C@@]4(C)CC[C@@H]32)C1 (some centres unmarked) [E0128] | 83.47 | – | – | – | 5.01 | 23 | – |
| CCCCCCCC/C=C\CCCCCCCCOCC(CN1CCCCC1)OCCOC(=O)CCCC(=O)O[C@H]1CC[C@@]2(C)C(=CC[C@H]3[C@@H]4CC[C@H]([C@H](C)CCCC(C)C)[C@@]4(C)CC[C@@H]32)C1 (some centres unmarked) [E0151] | 103.8 | – | – | – | 6.06 | 25 | PLK1 inhibition % ([3]; 1 × 0.1 mg siRNA/kg): 7% |
| CCCCCCCC/C=C\CCCCCCCCOCC(CN1CCOCC1)OCCOCCOC(=O)CCC(=O)O[C@H]1CC[C@@]2(C)C(=CC[C@H]3[C@@H]4CC[C@H]([C@H](C)CCCC(C)C)[C@@]4(C)CC[C@@H]32)C1 (some centres unmarked) [E0152] | 121.3 | – | – | – | 5.38 | 18 | – |
| CCCCCCCC/C=C\CCCCCCCCOCOCC(CN1CCCCC1)OCCCOC(=O)CCC(=O)O[C@H]1CC[C@@]2(C)C(=CC[C@H]3[C@@H]4CC[C@H]([C@H](C)CCCC(C)C)[C@@]4(C)CC[C@@H]32)C1 (some centres unmarked) [E0160] | 100.8 | – | – | – | 6.05 | 38 | – |
| CCCCCCCC/C=C\CCCCCCCCOCC(CN1CCOCC1)OCCOCC(=O)OC1CC[C@@]2(C)C(=CCC3C2CC[C@@]2(C)C3CC[C@@H]2[C@H](C)CCCC(C)C)C1 (some centres unmarked) [E0167] | 86.57 | – | – | – | 5.21 | 23 | – |
| CCCCC/C=C\C/C=C\CCCCCCCCOCC(CN1CCC(C)(C)CC1)OCCOCCO[C@H]1CC[C@@]2(C)C(=CCC3C2CC[C@@]2(C)C3CC[C@@H]2[C@H](C)CCCC(C)C)C1 (some centres unmarked) [E0171] | – | – | – | – | 8.5 | – | Final size (nm) [1, 6]: 90 nm; PDI [1, 6]: 0.18; FVII inhib % [2, 7]: 54.1%; in vivo Factor VII inhibition [2]: 40.8% |
| CCCCC/C=C\C/C=C\CCCCCCCCOCC(CN(C)C)OCCOCCO[C@H]1CC[C@@]2(C)C(=CC[C@H]3[C@@H]4CC[C@H]([C@H](C)CCCC(C)C)[C@@]4(C)CC[C@@H]32)C1 (some centres unmarked) [E0172, reference compound] | – | – | – | – | 6.7 | – | Final size (nm) [1, 10]: 170 nm; PDI [1, 10]: 0.181; Final size (nm) [1, 6]: 129 nm; PDI [1, 6]: 0.184; FVII inhib % [2, 11]: 21%; FVII inhib % [2, 7]: 40.8%; pKa [4]: 8.5 |
| CCCCC/C=C\C/C=C\CCCCCCCCOCC(CN(C)C)OCCCCO[C@H]1CC[C@@]2(C)C(=CCC3C2CC[C@@]2(C)C3CC[C@@H]2[C@H](C)CCCC(C)C)C1 (stereo partly drawn) [E0173, 3-Dimethylamino-2-(Cholest-5-en-3-beta-oxybutan-4-oxy) -1-(cis,cis-9,12-octadecadienoxy)propane, reference compound] | – | – | – | – | 6.73 | – | Final size (nm) [1, 10]: 98 nm; PDI [1, 10]: 0.17; Final size (nm) [1, 6]: 76 nm; PDI [1, 6]: 0.16; FVII inhib % ([2]; dose 1 mg/kg siRNA i.v., lipid/no neutral lipid/CHOL/AVANTI 880150P 50/0/46/4, N/P 3.43): 87.4%; FVII inhib % [2, 11]: 90.9%; FVII inhib % [2, 7]: 98.5%; in vivo Factor VII inhibition [2]: 98.5% |
| CCCCC/C=C\C/C=C\CCCCCCCCCCC(CN(C)C)OC(=O)CCC(=O)O[C@H]1CC[C@@]2(C)C(=CCC3C2CC[C@@]2(C)C3CC[C@@H]2[C@H](C)CCCC(C)C)C1 (some centres unmarked) [E0174, reference compound] | – | – | – | – | 5.15 | – | Final size (nm) [1, 10]: 117 nm; PDI [1, 10]: 0.23; Final size (nm) [1, 6]: 90 nm; PDI [1, 6]: 0.21; FVII inhib % [2, 11]: 63.2%; FVII inhib % [2, 7]: 3.5% |
| CCCCC/C=C\C/C=C\CCCCCCCCOCC(CN1CCCCC1)OCCCOC(=O)CCC(=O)O[C@H]1CC[C@@]2(C)C(=CC[C@H]3[C@@H]4CC[C@H]([C@H](C)CCCC(C)C)[C@@]4(C)CC[C@@H]32)C1 (some centres unmarked) [E0179] | 114.6 | – | – | – | 5.95 | 53 | – |
